Source: patent US9421204B2, “Oligomer modified diaromatic substituted compounds” (priority 2010, dated 2016)
Like-named read-outs stand apart in the source and are kept apart here.

Experiments:
[1] = pKa determination (Sirius GLpKa); format: physicochemical; conditions: aqueous pKa, 25° C.
Description: The Sirius GLpKa instrument is used to determine the pKa and Log P. A blank standardization has to be completed first and passed in order to conduct the compound experiments. The solutions used by the instrument for the blank titration include water, a pH solution, and a surfactant (TRITON X-100). The TRITON X-100 was purchased commercially from Sirus. The 0.5% solution of TRITON X-100 was used in the experiment. In a 1 L volumetric flask 5 mls of TRITON X-100 is added and MILLI Q water to volume. The vessels used by the instrument were filled to ⅓ of their volume with each solution. Therefore the assay tray contains one vessel for water, pH solution, and surfactant for the blank run. The temperature of the water bath for the instrument is 25° C. The blank is calculated as an average of three “good” experiments. The “good” was denoted by a green check mark next to the assay number in the computer software. Once the blank was run successfully the instrument was ready to conduct the experiments.
The pKa has to be determined first in order to calculate the Log P. The API is used to determine the pKa needed for the Log P experiment followed by the conjugates. The base compound was first weighed into a vessel. The amount weighed for each sample was 10% of the molecular weight of the compound. The same procedure was followed for each conjugate. The vessels were placed in the assay tray of the instrument. A method had to be set up for the pKa run. The experimental parameters are entered into the computer software. These included sample weight, molecular weight, assay type (aqueous pKa), number of assays (three), and titration range (generally 3.5-12). The run was started. There are three measurements for each run that are averaged to obtain the final results from the data points collected in the calculation software. All runs were denoted as “good” by the green check mark next to the assay number.

[2] = biological target: Wild Type RT (Human immunodeficiency virus type 1 group M subtype B, UniProt P04585); assay: HIV-1 Reverse Transcriptase Inhibition Assay; format: biochemical
Description: The following materials were removed from the freezer and were stored on wet ice (dGTP, ^32P, purified enzyme extract, rCdG, dGTP, DNA). Test compounds were evaluated at a high test of 100 μM diluted in dH2O and if the stock solution was turbid, 1:1000 Triton-X was added to the stock solution. Thirty microliters (30 μL) of each dilution was then transferred in duplicate to the appropriate well of a 96-well plate. The positive and negative control wells each received 30 μL of dH2O instead of the compound. A 2× buffer was prepared in the following manner: 125 μL 2M Tris pH 8.0, 250 μL 3M KCl, 80 μL 1 M MgC12, 10 μL 2 M DTT, 40 μL 25 U/mL rCdG, 100 μL 1 mM dGTP, 10 μL 800 Ci/mMol alpha ^32P:dG TP, and 4.4 mL dH2O. Fifty microliters (50 μL) of 2× buffer was added to every well of the plate. BSA was diluted 1:100 and Triton-X 1:1000 in dH2O and the enzyme was added to the mixture at a 1:400 dilution. Twenty microliters (20 μL) of the enzyme solution was added to all of the wells of the plate except the negative control wells. Distilled water was used instead of enzyme in these wells. The plate was incubated at 37° C. for 30 minutes. Following incubation, 10 μL of 10 mg/mL DNA (MB-grade fish sperm) was added to each well, followed by 150 μL of cold 10% TCA in each well. The plate was incubated at room temperature for approximately 15 minutes in order to allow for precipitation of the samples. Following the incubation the contents were transferred to the appropriate filter plate. The plate was placed on the vacuum manifold and pushed firmly to induce suction. Wells were rinsed with 200 μL of cold TCA. Again, the plate was pushed down firmly and vacuum suction was applied. Once all of the liquid was aspirated from the filter plate, it was removed from the manifold and residual liquid was blotted from the bottom of the plastic base. The filtered wells were separated from the plastic base and the wells were blotted on clean, absorbent paper. The filtered wells were pushed into the cassette and a sheet of Millipore multiscreen tape was placed on the bottom of a Wallace Microbeta cassette covering all of the holes. Twenty microliters (20 μL) of Wallace Supermix Scintillant was added to each well and the top of the wells were covered with a sheet of the multiscreen tape. The plate was read on the Wallace MicroBeta counter to measure incorporated ^32P.

[3] = test system: HIV-1RF; assay: Anti-HIV-1 cytoprotection assay in CEM-SS cells; format: cell-based; conditions: for EC50: CEM-SS cells, XTT, read-out: CEM-SS/HIV-1RF EC50; for Therapeutic Index: CEM-SS/HIV-1RF
Description: Cell Preparation—CEM-SS cells were passaged in T-75 flasks prior to use in the antiviral assay. On the day preceding the assay, the cells were split 1:2 to assure they were in an exponential growth phase at the time of infection. Total cell and viability quantification was performed using a hemocytometer and Trypan Blue dye exclusion. […] The cells were resuspended at 5×10^4 cells per ml in tissue culture medium and added to the drug containing microtiter plates in a volume of 50 μL.
Virus Preparation—The virus used for the assay was the lymphocyte-tropic virus strain HIV-IRF. The virus was obtained from the NIH AIDS Research and Reference Reagent Program and stock virus pools were produced in CEM-SS cells. A pretitred aliquot of virus was removed from the freezer (−80° C.) and allowed to thaw slowly to room temperature in a biological safety cabinet.
Plate Format—Each plate contains cell control wells (cells only), virus control wells (cells plus virus), drug toxicity wells (cells plus drug only), drug colorimetric control wells (drug only) as well as experimental wells (drug plus cells plus virus). Samples were tested in triplicate with eleven half-log dilutions per compound.
Efficacy and Toxicity XTT—Following incubation at 37° C. in a 5% CO2 incubator, the test plates were stained with the tetrazolium dye XTT (2,3-bis(2-methoxy-4-nitro-5-sulfophenyl)-5-[(phenylamino)carbonyl]-2H-tetrazolium hydroxide). XTT-tetrazolium is metabolized by the mitochondrial enzymes of metabolically active cells to a soluble formazan product, allowing rapid quantitative analysis of the inhibition of HIV induced cell killing by anti-HIV test substances. XTT solution was prepared daily as a stock of 1 mg/mL in RPMI1640. Phenazine methosulfate (PMS) solution was prepared at 0.15 mg/mL in PBS and stored in the dark at −20° C. XTT/PMS stock was prepared immediately before use by adding 40 μL of PMS per ml of XTT solution. Fifty microliters of XTT/PMS was added to each well of the plate and the plate was re-incubated for 4 hours at 37° C. Plates were sealed with adhesive plate sealers and shaken gently or inverted several times to mix the soluble fosmazan product and the plate was read spectrophotometrically at 450/650 nm with a Molecular Devices Vmax plate reader.
Anti-HIV-1 Cytopathic Effects Inhibition Assay Evaluations: Eight compounds were evaluated against the RF strain of HIV-1 in CEM-SS cells using a 12 concentration dose response curve.
Data Analysis—Raw data was collected from the Softmax Pro 4.6 software and imported into a Excel XLFit4 spreadsheet for analysis by four parameter curve fit calculations. Both antiviral activity and toxicity are calculated.

[4] = Human immunodeficiency virus 1, CEM-SS

Row | Compound | pKa1 [1] | IC50 ([2]; read-out: Wild Type RT IC50) | EC50 [3] | Therapeutic Index [3] | IC50 ([2]; Wild Type RT IC50) | EC50 [3, 4]
1 | 5-O-mPEG9-Delavirdine [mPEG9-O-Delavirdine] | 4.655 | 560 nM | 130 nM | 323.1 | – | –
2 | COCCNc1ccc2[nH]c(C(=O)N3CCN(c4ncccc4NC(C)C)CC3)cc2c1 [5-mPEG1-NH-Delavirdine, 5-mPEG-NH-Delavirdine] | – | – | – | 1083.11 | 250 nM | 47 nM
3 | COCCOCCNc1ccc2[nH]c(C(=O)N3CCN(c4ncccc4NC(C)C)CC3)cc2c1 [5-mPEG2-NH-Delavirdine] | – | – | – | 3266.29 | 580 nM | 17 nM
4 | COCCOCCOCCOc1ccc2[nH]c(C(=O)N3CCN(c4ncccc4NC(C)C)CC3)cc2c1 [mPEG3-O-Delavirdine, 5-O-mPEG3-Delavirdine] | 3.792 | – | – | 499.0 | 50 nM | 54 nM
5 | COCCOCCOCCOCCOc1ccc2[nH]c(C(=O)N3CCN(c4ncccc4NC(C)C)CC3)cc2c1 [mPEG4-O-Delavirdine, 5-O-mPEG4-Delavirdine] | 4.275 | – | – | 213.8 | 280 nM | 160 nM
6 | COCCOCCOCCOCCOCCOc1ccc2[nH]c(C(=O)N3CCN(c4ncccc4NC(C)C)CC3)cc2c1 [mPEG5-O-Delavirdine, 5-O-mPEG5-Delavirdine] | 4.454 | – | – | 19.0 | 130 nM | 760 nM
7 | COCCOCCOCCOCCOCCOCCOc1ccc2[nH]c(C(=O)N3CCN(c4ncccc4NC(C)C)CC3)cc2c1 [mPEG6-O-Delavirdine, 5-O-mPEG6-Delavirdine] | 4.447 | – | – | 26.7 | 290 nM | 840 nM
8 | COCCOCCOCCOCCOCCOCCOCCOc1ccc2[nH]c(C(=O)N3CCN(c4ncccc4NC(C)C)CC3)cc2c1 [mPEG7-O-Delavirdine, 5-O-mPEG7-Delavirdine] | 4.683 | – | – | 76.1 | 700 nM | 470 nM
9 | COCCOCCOCCOCCOCCOCCOCCOCCOc1ccc2[nH]c(C(=O)N3CCN(c4ncccc4NC(C)C)CC3)cc2c1 [mPEG8-O-Delavirdine, 5-O-mPEG8-Delavirdine] | 4.667 | – | – | 144.2 | 490 nM | 360 nM
